From patent US20070149508A1, “Six membered heteroaromatic inhibitors targeting resistant kinase mutations” (TargeGen, Inc., priority 2005, published 2007)
Counter-ions that a name gives are not always drawn.

Columns and labels:
[1] = target: Abl kinase (Homo sapiens, UniProt P00519); experiment: biochemical; details: Abl IC50 (nM), Abl kinase (Invitrogen, 20 ng/well), Abltide 100 μM, ATP 500 nM, 37° C. for 60 minutes, top concentration 10 uM
Experimental: Kinase activity was assessed using luminescent detection (KinaseGlo, Promega) of residual ATP concentration in reaction mixtures containing optimized levels of kinase, substrate, ATP, compound and appropriate buffers. Kinase, substrate and ATP concentrations were determined per the supplier's recommendations. Briefly, this involved running concentration curves to select for optimal signal.
The reaction mixture (50 ul/well) consisted of Abl kinase (Invitrogen, 20 ng/well); Abltide peptide substrate (Upstate, 100 μM) and ATP (500 nM). Each compound was evaluated at a top concentration of 10 uM with 1:3 dilution steps, 10 dilution steps total. Compound was diluted into DMSO and transferred to the reaction plate, resulting in a final DMSO concentration of 2%. This amount of DMSO was determined not to interfere with the enzyme. The reaction was conducted at 37° C. for 60 minutes. The degree of inhibition was assessed using IC50 determinations, which were obtained using GraphPad Prism4.

[2] = target: T1, Abl (T315I) (Homo sapiens, UniProt P00519, T315I); experiment: Abl (T315I) Kinase Assay (KinaseGlo luminescent detection of residual ATP); type: biochemical; details: Abl (T315I) IC50 (nM), Abl (T315I) (Upstate, 17 ng/well), Abltide 100 uM, ATP 500 nM, 60 minutes at 37° C.
T1 construct: purchased Upstate
Experimental: The assay was performed similarly to the Abl kinase assay. Abl (T315I) (Upstate, 17 ng/well); Abltide substrate (100 uM) and ATP (500 nM) comprised the reaction mixture. Compound was similarly diluted, and the reaction plate was incubated for 60 minutes at 37° C.

SMILES	IC50 [1]	IC50 [2]
CCNC(=O)N1CCC(S(=O)(=O)c2ccc(Nc3ncc(/C=C/c4ccc5nc(N)sc5c4)cn3)cc2)CC1 [4-(4-{5-[2-(2-Amino-benzothiazol-6-yl)-vinyl]-benzenesulfonyl)-piperidine-pyrimidin-2-ylamino)-1-carboxylic acid ethylamide]	233 nM	237 nM
N#Cc1ccc(Nc2ncc(/C=C/c3cccc4[nH]ccc34)cn2)cc1 [4-(5-((E)-2-(1H-indol-4-yl)vinyl)pyrimidin-2-ylamino)benzonitrile]	174 nM	> 10000 nM
Nc1nc2ccc(/C=C/c3cnc(Nc4ccc(S(=O)(=O)N(CCO)C5CCNCC5)cc4)nc3)cc2s1 [4-({5-[(E)-2-(2-amino-1,3-benzothiazol-6-vinyl]pyrimidin-2-yl}amino)-N-(2-hydroxyethyl)-N-piperidin-4-ylbenzenesulfonamide]	84 nM	33 nM
Nc1nc2ccc(/C=C/c3cnc(Nc4ccc(S(=O)(=O)NCCO)c(N5CCNCC5)c4)nc3)cc2s1 [4-({5-[(E)-2-(2-amino-1,3-benzothiazol-6-yl)vinyl]pyrimidin-2-yl}amino)-N-(2-hydroxyethyl)-2-piperazin-1-ylbenzenesulfonamide]	585 nM	354 nM
CN(C)CCN(C1CCNCC1)S(=O)(=O)c1ccc(Nc2ncc(/C=C/c3ccc4nc(N)sc4c3)cn2)cc1 [4-({5-[(E)-2-(2-amino-1,3-benzothiazol-6-yl)vinyl}pyrimidin-2-yl}amino)-N-[2-(dimethylamino)ethyl]-N-piperidin-4-ylbenzenesulfonamide]	109 nM	38 nM
Nc1nc2ccc(/C=C/c3cnc(Nc4ccc(S(=O)(=O)NC5CCNCC5)cc4)nc3)cc2s1 [4-{5-[2-(2-Amino-benzothiazol-6-yl)-vinyl]-piperidin-4-yl-benzenesulfonamide]	47 nM	29 nM
CN(C1CCNCC1)S(=O)(=O)c1ccc(Nc2ncc(/C=C/c3ccc4nc(N)sc4c3)cn2)cc1 [4-{5-[2-(2-Amino-benzothiazol-6-yl)-vinyl]pyrimidin-2-ylamino}-N-methyl-N-piperidin-4-yl-benzensulfonamide Hydrochloride]	93 nM	45 nM
Nc1nc2ccc(/C=C/c3cnc(Nc4ccc(S(=O)(=O)NC5CCCNC5)cc4)nc3)cc2s1 (stereo not drawn) [4-{5-[2-(2-Aminobenzothiazol-6-yl)-vinyl]-pyrimidin-2-ylamino}-N-piperidin-3-yl-benzenesulfonamide Hydrochloride]	1440 nM	898 nM
Cc1nc(Nc2ccc(S(=O)(=O)NCCN3CCCC3)cc2)ncc1/C=C/c1cccc(O)c1 [4-{5-[2-(3-Hydroxy-phenyl)-vinyl]-4-methyl-pyrimidin-2-ylamino}-N-(2-pyrrolidin-1-yl-ethyl)-benzenesulfonamide]	39 nM	436 nM
O=S(=O)(c1ccc(Nc2ncc(/C=C/c3ccc4c(c3)CC/C4=N/O)cn2)cc1)C1CCNCC1 [5-(2-{2-[4-(Piperidine-4-sulfonyl)-phenylamino]-pyrimidin-5-yl}-vinyl)-indan-1-one oxime]	593 nM	3650 nM
O=S(=O)(c1ccc(Nc2ncc(/C=C/c3ccc4c(c3)CC/C4=N/O)cn2)cc1)C1CCNCC1 [5-(2-{2-[4-(Piperidine-4-sulfonyl)-phenylaminol]-pyrimidin-5-yl}-vinyl)-indan-1-one oxime]	2420 nM	1800 nM
O=S(=O)(c1ccc(Nc2ncc(/C=C/c3cccc(-c4cn[nH]c4)c3)cn2)cc1)C1CCNCC1 [5-(3-(1H-pyrazol-4-yl)styryl)-N-(4-(piperidin-4-ylsulfonyl)phenyl)-pyrimidin-2-amine Hydrochloride]	1740 nM	1980 nM
O=S(=O)(c1ccc(Nc2ncc(/C=C/c3cccc(C(F)F)c3)cn2)cc1)C1CCNCC1 [5-(3-(difluoromethyl)styryl)-N-(4-piperidin-4-ylsulfonyl)phenyl)pyrimidin 2-amine. Triflate]	162 nM	486 nM
Cc1cccc(/C=C/c2cnc(Nc3ccc(S(=O)(=O)C4CCNCC4)cc3)nc2)c1 [5-(3-(methyl)styryl)-N-(4-(piperidin-4-ylsulfonyl)phenyl)pyrimidin-2-amine. TFA]	51 nM	562 nM
O=S(=O)(c1ccc(Nc2ncc(/C=C/c3cccc(C(F)(F)F)c3)cn2)cc1)C1CCNCC1 [5-(3-(trifluoromethyl)styryl)-N-(4-(piperidin-4-ylsulfonyl)phenyl)pyrimidin-2-amine. TFA]	565 nM	3200 nM
O=S(=O)(c1ccc(Nc2ncc(/C=C/c3ccc(C(F)F)cc3)cn2)cc1)C1CCNCC1 [5-(4-(difluoromethyl)styryl)-N-(4-(piperidin-4-ylsulfonyl)phenyl)pyrimidin-2-amine. Triflate]	429 nM	1330 nM
O=S(=O)(c1ccc(Nc2ncc(/C=C/c3ccc4[nH]nnc4c3)cn2)cc1)C1CCNCC1 [5-((E)-2-(1H-benzo[d][1,2,3]triazol-5-yl)vinyl)-N-(4-(piperidin-4-ylsulfonyl)phenyl)pyrimidin-2-amine]	75 nM	467 nM
O=S(=O)(c1ccc(Nc2ncc(/C=C/c3n[nH]c4ccccc34)cn2)cc1)C1CCNCC1 [5-((E)-2-(1H-indazol-3-yl)vinyl)-N-(4-(piperidin-4-ylsulfonyl)phenyl)pyrimidin-2-amine Hydrochloride]	191 nM	202 nM

Now from value to molecule:

IC50 [1]	IC50 [2]	SMILES
25 nM	40 nM	O=S(=O)(c1ccc(Nc2ncc(/C=C/c3ccc(O)c(O)c3)cn2)cc1)C1CCNCC1 [4-((E)-2-(2-(4-(piperidin-4-ylsulfonyl)phenylamino)pyrimidin-5-yl)vinyl)benzene-1,2-diol Hydrochloride]
39 nM	394 nM	Nc1nc2c(/C=C/c3cnc(Nc4ccc(S(=O)(=O)C5CCNCC5)cc4)nc3)cccc2s1 [4-((E)-2-(2-(4-(piperidin-4-ylsulfonyl)phenylamino)pyrimidin-5-yl)vinyl)benzo[d]thiazol-2-amine Hydrochloride]
26 nM	738 nM	O=S(=O)(NCCN1CCCC1)c1ccc(Nc2ncc(/C=C/c3cccc4[nH]ccc34)cn2)cc1 [4-({5-[(E)-2-(1H-indol-4-yl)vinyl]pyrimidin-2-yl}amino)--N-[4-(2-pyrrolidin-1-ylethyl)benzenesulfonamide]
3.8 nM	96 nM	O=S(=O)(c1ccc(Nc2ncc(/C=C/c3cc(O)ccc3Cl)cn2)cc1)C1CCNCC1 [4-Chloro-3-(2-{2-[4-(piperidine-4-sulfonyl)-phenylamino]-pyrimidin-5-yl}-vinyl)-phenol]
7.6 nM	133 nM	O=S(=O)(NCCN1CCCC1)c1ccc(Nc2ncc(/C=C/c3cccc4[nH]ncc34)cn2)cc1 [4-{5-[2-(1H-Indazol-4-yl)-vinyl]-pyrimidin-2-ylamino}-N-(2-pyrrolidin-1-yl-ethyl)-benzenesulfonamide]
6.2 nM	176 nM	O=S(=O)(NC1CCNCC1)c1ccc(Nc2ncc(/C=C/c3cccc4[nH]ncc34)cn2)cc1 [4-{5-[2-(1H-Indazol-4-yl)-vinyl]-pyrimidin-2-ylamino}-N-piperidin-4-yl-benzenesulfonamide hydrochloride]
12 nM	282 nM	O=S(=O)(NC1CCNCC1)c1ccc(Nc2ncc(/C=C/c3cccc4[nH]ccc34)cn2)cc1 [4-{5-[2-(1H-Indol-4-yl)-vinyl]-pyrimidin-2-ylamino}-N-piperidin-4-yl-benzenesulfonamide]
5 nM	805 nM	O=S(=O)(NCCN1CCCC1)c1ccc(Nc2ncc(CCc3cc(O)ccc3Cl)cn2)cc1 [4-{5-[2-(2-Chloro-5-hydroxy-phenyl)-ethyl]-pyrimidin-2-ylamino}-N-(2-benzenesulfonamide hydrochloride]
7.7 nM	390 nM	O=S(=O)(NCCN1CCCC1)c1ccc(Nc2ncc(/C=C/c3cc(O)ccc3Cl)cn2)cc1 [4-{5-[2-(2-Chloro-5-hydroxy-phenyl)-vinyl]-pyrimidin-2-ylamino}-N-(2-pyrrolidin-1-yl-ethyl)-benzenesulfonamide]
25 nM	240 nM	O=S(=O)(NCCN1CCCC1)c1ccc(Nc2ncc(/C=C/c3cc(O)ccc3F)cn2)cc1 [4-{5-[2-(2-Fluoro-5-hydroxy-phenyl)-vinyl]-pyrimidin-2-ylamino}-N-(2-pyrrolidin-1-yl-ethyl)-benzenesulfonamide]
16 nM	248 nM	Cc1cc(Nc2ncc(/C=C/c3cccc(O)c3)cn2)cc(C)c1S(=O)(=O)N(C)CCN1CCCC1 [4-{5-[2-(3-Hydroxy-phenyl)-vinyl]-pyrimidin-2-ylamino}-2,6,N-trimethyl-N-(2-pyrrolidin-1-yl-ethyl)-benzenesulfonamide]
7.1 nM	141 nM	O=S(=O)(NCCN1CCCC1)c1ccc(Nc2ncc(/C=C/c3cccc(O)c3)cn2)cc1 [4-{5-[2-(3-Hydroxy-phenyl)-vinyl]-pyrimidin-2-ylamino}-N-(2-pyrrolidin-1-yl-ethyl)-benzenesulfonamide]
8.9 nM	112 nM	O=S(=O)(NCCCO)c1ccc(Nc2ncc(/C=C/c3cccc(O)c3)cn2)cc1 [4-{5-[2-(3-Hydroxy-phenyl)-vinyl]-pyrimidin-2-ylamino}-N-(3-hydroxy-propyl)-benzenesulfonamide]
12 nM	60 nM	O=S(=O)(NC1CCCNC1)c1ccc(Nc2ncc(/C=C/c3cccc(O)c3)cn2)cc1 (stereo not drawn) [4-{5-[2-(3-Hydroxy-phenyl)-vinyl]-pyrimidine-2-ylamino}-N-piperdin-3-yl-benzenesulfonamide Hydrochloride]
4.6 nM	36 nM	O=S(=O)(NC1CCNCC1)c1ccc(Nc2ncc(/C=C/c3cccc(O)c3)cn2)cc1 [4-{5-[2-(3-Hydroxy-phenyl)-vinyl]-pyrimidine-2-ylamino}-N-piperdin-4-yl-benzenesulfonamide Hydrochloride]
